The values that follow come from patent US11365199B2, “Pyrazole compounds as modulators of FSHR and uses thereof” (Merck Patent GmbH, priority 2013, dated 2022).

The target in the experiment is T1, FSHR (Homo sapiens, UniProt P23945).
T1 construct: expressed in transfected cells; host or cells: CHO (Cho-FSHR-LUC-1-1-43)
T1 sequence (P23945 18-695): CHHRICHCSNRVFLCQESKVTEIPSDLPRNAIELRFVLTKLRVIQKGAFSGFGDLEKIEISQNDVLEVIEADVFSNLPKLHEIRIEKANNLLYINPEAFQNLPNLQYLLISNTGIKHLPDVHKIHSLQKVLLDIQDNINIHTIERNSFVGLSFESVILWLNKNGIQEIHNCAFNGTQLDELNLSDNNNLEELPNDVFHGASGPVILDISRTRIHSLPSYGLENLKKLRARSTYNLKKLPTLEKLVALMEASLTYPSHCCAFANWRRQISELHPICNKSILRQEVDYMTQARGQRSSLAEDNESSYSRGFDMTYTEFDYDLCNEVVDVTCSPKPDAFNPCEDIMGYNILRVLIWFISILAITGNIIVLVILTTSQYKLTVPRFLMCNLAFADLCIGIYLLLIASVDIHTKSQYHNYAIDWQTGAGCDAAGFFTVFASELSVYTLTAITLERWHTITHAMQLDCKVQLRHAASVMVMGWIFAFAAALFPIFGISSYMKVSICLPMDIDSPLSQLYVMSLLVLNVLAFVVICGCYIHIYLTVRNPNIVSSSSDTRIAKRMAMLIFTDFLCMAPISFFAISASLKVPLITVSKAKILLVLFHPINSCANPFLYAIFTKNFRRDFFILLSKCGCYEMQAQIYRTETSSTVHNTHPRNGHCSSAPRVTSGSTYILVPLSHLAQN
Put plainly: EC50 of cyclic AMP production in CHO FSHR cells + EC20 FSH (Assay A). The experiment is classed as cell-based. To be noted: CHO FSHR cells + EC20 FSH, cAMP HTRF; read-out: Assay A: EC50 of cyclic AMP production. On the procedure:
EC50 of Cyclic AMP Production in CHO FSHR Cells+EC20 FSH (Assay A)
2500 Cho-FSHR-LUC-1-1-43 cells were plated per well in 5 μl of phenol red free DMEM/F12+1% FBS. Cells were plated in 384 well, solid white low volume plates (Greiner 784075) by Multidrop. Cells were assayed by adding 100 μl of 2×EC20 FSH/IBMX in DMEM/F12+0.1% BSA) by Multidrop to 2 μl of test compound stamped in 384 well plates (compounds are diluted 1:50). The final FSH concentration was […], and the final IBMX concentration was 200 μM. The compound plate map was as follows: Column 1: 2 μl of DMSO; Column 2: 2 μl of DMSO; Columns 3-12 and 13-24: 2 μl of test compound, diluted 1:4 in 100% DMSO, or 2 μl of FSH, diluted 1:4 in DMEM/F12+0.1% BSA. The starting concentration for FSH was 50 nM (final concentration was 0.5 nM). Furthermore, Column 23 contained 2 μl of EC100 FSH reference (100×) (diluted in DMEM/F12+0.1% BSA) at a final concentration of 0.5 nM, and Column 24 contained 2 μl of 1 mM AS707664/2 reference compound 2. 5 μl of compound+EC20 FSH mixture were transferred to cell plates (1:2 dilution into 5 μl of cell media) The plates were incubated at 37° C. for 1 h. 10 μl of mixed HTRF (CisBio #62AM4PEC) reagents were added per well and incubated at room temperature for 1 h. The plates were read on Envision using the cAMP HTRF—low volume 384 well protocol. The readout was the calculated fluorescence ratio (665 nm/620 nm). Values given in percent (%) indicate the percental effect (response) at a certain concentration of agonist relative to the maximum response of the FSH standard.

Turning to `[2H]C([2H])([2H])O[C@H]1CC[C@H](N(C(=O)c2nn(-c3ccsc3)c3c2COc2cc(OC)c(-c4ccn(C)n4)cc2-3)C([2H])([2H])[2H])C1` [Compound 196], the EC50 (in general, the concentration giving half of the maximal effect) was over 5000 nM.
With `CCn1nc(C)c(-c2cc3c(cc2OC)OCc2c(C(=O)N4CCOCC4(C)C)nn(-c4ccsc4)c2-3)c1C` [Compound 204, (3,3-Dimethyl-morpholin-4-yl)-[8-(1-ethyl-3,5-dimethyl-1H-pyrazol-4-yl)-7-methoxy-1-thiophen-3-yl-1,4-dihydro-chromeno[4,3-c]pyrazol-3-yl]-methanone], the EC50 was under 100 nM.
Turning to `COc1cc2c(cc1-c1cncnc1)-c1c(c(C(=O)N(C)C(C)(C)C)nn1-c1ccsc1)CO2` [Compound 70, 7-Methoxy-8-pyrimidin-5-yl-1-thiophen-3-yl-1,4-dihydro-chromeno[4,3-c]pyrazole-3-carboxylic acid tert-butyl-methyl-amide], the EC50 was under 100 nM.
As for `[2H]C([2H])([2H])N(C(=O)c1nn(-c2ccsc2)c2c1COc1cc(OC)c(-c3ccnn3C)cc1-2)C1(C)COC1` [Compound 118], the EC50 is under 100 nM.
For the compound `COc1cc2c(cc1OC(C)C)-c1c(c(C(=O)N3CCCC(C(=O)O)CC3)nn1-c1ccsc1)CO2` (stereo not drawn) [Compound 25, 1-(8-Isopropoxy-7-methoxy-1-thiophen-3-yl-1,4-dihydro-chromeno[4,3-c]pyrazole-3-carbonyl)-azepane-4-carboxylic acid], the EC50 is over 5000 nM.
Next, `COc1cc2c(cc1-c1cnn(C)c1)-c1c(c(C(=O)N(C)C(C)(C)C)nn1-c1ccsc1)CO2` [Compound 66, 7-Methoxy-8-(1-methyl-1H-pyrazol-4-yl)-1-thiophen-3-yl-1,4-dihydro-chromeno[4,3-c]pyrazole-3-carboxylic acid tert-butyl-methyl-amide]: under 100 nM; `[2H]C([2H])([2H])N(CCN1CCOC1=O)C(=O)c1nn(-c2ccsc2)c2c1COc1cc(OC)c(-c3cnn(C([2H])([2H])[2H])c3)cc1-2` [Compound 78]: under 100 nM.
Regarding `COc1cc2c(cc1-c1c[nH]nc1C)-c1c(c(C(=O)NC3CC(O)C3)nn1-c1ccsc1)CO2` (stereo not drawn) [Compound 138, 7-Methoxy-8-(3-methyl-1H-pyrazol-4-yl)-1-thiophen-3-yl-1,4-dihydro-chromeno[4,3-c]pyrazole-3-carboxylic acid (3-hydroxy-cyclobutyl)-amide], the EC50 was over 5000 nM.
Next, `[2H]C([2H])([2H])N(C(=O)c1nn(-c2ccsc2)c2c1COc1cc(OC)c(-c3cn(C([2H])([2H])[2H])nc3C)cc1-2)C1CCOC1` (stereo not drawn) [Compound 143]: 100 to 1000 nM.
On to `COc1cc2c(cc1C1=CCCN(C)C1)-c1c(c(C(=O)N(C)C(C)(C)C)nn1-c1ccsc1)CO2` [Compound 134, 7-Methoxy-8-(1-methyl-1,2,5,6-tetrahydro-pyridin-3-yl)-1-thiophen-3-yl-1,4-dihydro-chromeno[4,3-c]pyrazole-3-carboxylic acid tert-butyl-methyl-amide], for which the EC50 lay in the range of 100 to 1000 nM.
Take `COc1cc2c(cc1-c1ccn(C)c1)-c1c(c(C(=O)N3CCCC3(C)CO)nn1-c1ccsc1)CO2` (stereo not drawn) [Compound 176, (2-Hydroxymethyl-2-methyl-pyrrolidin-1-yl)-[7-methoxy-8-(1-methyl-1H-pyrrol-3-yl)-1-thiophen-3-yl-1,4-dihydro-chromeno[4,3-c]pyrazol-3-yl]-methanone]: the EC50 is under 100 nM.
Next, `COc1cc2c(cc1-c1ccc(F)s1)-c1c(c(C(=O)N(C)C(C)(C)C)nn1-c1ccsc1)CO2` [Compound 54, 8-(5-Fluoro-thiophen-2-yl)-7-methoxy-1-thiophen-3-yl-1,4-dihydro-chromeno[4,3-c]pyrazole-3-carboxylic acid tert-butyl-methyl-amide]: 100 to 1000 nM; `[2H]C([2H])([2H])N(CCCN(C(=O)C1CCC1)C([2H])([2H])[2H])C(=O)c1nn(-c2ccsc2)c2c1COc1cc(OC)c(C=C(C)C)cc1-2` [Compound 69]: 100 to 1000 nM.
`COc1cc2c(cc1-c1cnc(C)s1)-c1c(c(C(=O)N(C)C(C)(C)C)nn1-c1ccsc1)CO2` [Compound 73, 7-Methoxy-8-(2-methyl-thiazol-5-yl)-1-thiophen-3-yl-1,4-dihydro-chromeno[4,3-c]pyrazole-3-carboxylic acid tert-butyl-methyl-amide]: the EC50 is under 100 nM.
For the compound `COc1cc2c(cc1-c1c[nH]nc1C)-c1c(c(C(=O)N(C)C(C)(C)C)nn1-c1ccsc1)CO2` [Compound 71, 7-Methoxy-8-(3-methyl-1H-pyrazol-4-yl)-1-thiophen-3-yl-1,4-dihydro-chromeno[4,3-c]pyrazole-3-carboxylic acid tert-butyl-methyl-amide], the EC50 is under 100 nM.
Consider `COc1cc2c(cc1-c1ccnn1C)-c1c(c(C(=O)N(C)CC3(C)COC3)nn1-c1ccsc1)CO2` [Compound 110, 7-Methoxy-8-(2-methyl-2H-pyrazol-3-yl)-1-thiophen-3-yl-1,4-dihydro-chromeno[4,3-c]pyrazole-3-carboxylic acid methyl-(3-methyl-oxetan-3-ylmethyl)-amide], for which the EC50 is under 100 nM.
Turning to `[2H]C([2H])([2H])N(C(=O)c1nn(-c2ccsc2)c2c1COc1cc(OC)c(-c3ccn(C)n3)cc1-2)C1CCOC1` (stereo not drawn) [Compound 140], the EC50 fell in the range of 1000 to 5000 nM.
As for `COc1cc2c(cc1C=C(C)C)-c1c(c(C(=O)N3CCCC(C(=O)N(C)C)CC3)nn1-c1ccsc1)CO2` (stereo not drawn) [Compound 41, 1-[7-Methoxy-8-(2-methyl-propenyl)-1-thiophen-3-yl-1,4-dihydro-chromeno[4,3-c]pyrazole-3-carbonyl]-azepane-4-carboxylic Acid Dimethylamide], the EC50 fell in the range of 100 to 1000 nM.
Next, `COc1cc2c(cc1-c1ccn(C)n1)-c1c(c(C(=O)N3CCOCC3C(F)(F)F)nn1-c1ccsc1)CO2` (stereo not drawn) [Compound 144, [7-Methoxy-8-(1-methyl-1H-pyrazol-3-yl)-1-thiophen-3-yl-1,4-dihydro-chromeno[4,3-c]pyrazol-3-yl]-(3-trifluoromethyl-morpholin-4-yl)-methanone]: under 100 nM.
On to `COc1cc2c(cc1C=C(C)C)-c1c(c(C(=O)N(C)C(C)(C)C)nn1-c1cccs1)CO2` [Compound 90, 7-Methoxy-8-(2-methyl-propenyl)-1-thiophen-2-yl-1,4-dihydro-chromeno[4,3-c]pyrazole-3-carboxylic Acid tert-butyl-methyl-amide], for which the EC50 is under 100 nM.
For the compound `COc1cc2c(cc1-c1cncn1C)-c1c(c(C(=O)N(C)C(C)(C)C)nn1-c1ccsc1)CO2` [Compound 130, 7-Methoxy-8-(3-methyl-3H-imidazol-4-yl)-1-thiophen-3-yl-1,4-dihydro-chromeno[4,3-c]pyrazole-3-carboxylic acid tert-butyl-methyl-amide], the EC50 is under 100 nM.
Next, `COc1cc2c(cc1CC(C)C)-c1c(c(C(=O)NC3(C)COC3)nn1-c1ccsc1)CO2` [Compound 145, 8-Isobutyl-7-methoxy-1-thiophen-3-yl-1,4-dihydro-chromeno[4,3-c]pyrazole-3-carboxylic acid (3-methyl-oxetan-3-yl)-amide]: 100 to 1000 nM; `[2H]C([2H])([2H])N(CCNC(=O)c1nn(-c2ccsc2)c2c1COc1cc(OC)c(C=C(C)C)cc1-2)C(C)=O` [Compound 60]: 100 to 1000 nM; `CCn1nccc1-c1cc2c(cc1OC)OCc1c(C(=O)N3CCOCC3(C)C)nn(-c3ccsc3)c1-2` [Compound 213, (3,3-Dimethyl-morpholin-4-yl)-[8-(2-ethyl-2H-pyrazol-3-yl)-7-methoxy-1-thiophen-3-yl-1,4-dihydro-chromeno[4,3-c]pyrazol-3-yl]-methanone]: under 100 nM.
